The values below come from article PMC11104609, “Discovery of allosteric regulators with clinical potential to stabilize alpha-L-iduronidase in mucopolysaccharidosis type I” (PLOS ONE, 2024).

Test [1] has as its target T1, rhIDUA (Aldurazyme) (Homo sapiens, UniProt P35475).
T1 sequence (P35475 28-653): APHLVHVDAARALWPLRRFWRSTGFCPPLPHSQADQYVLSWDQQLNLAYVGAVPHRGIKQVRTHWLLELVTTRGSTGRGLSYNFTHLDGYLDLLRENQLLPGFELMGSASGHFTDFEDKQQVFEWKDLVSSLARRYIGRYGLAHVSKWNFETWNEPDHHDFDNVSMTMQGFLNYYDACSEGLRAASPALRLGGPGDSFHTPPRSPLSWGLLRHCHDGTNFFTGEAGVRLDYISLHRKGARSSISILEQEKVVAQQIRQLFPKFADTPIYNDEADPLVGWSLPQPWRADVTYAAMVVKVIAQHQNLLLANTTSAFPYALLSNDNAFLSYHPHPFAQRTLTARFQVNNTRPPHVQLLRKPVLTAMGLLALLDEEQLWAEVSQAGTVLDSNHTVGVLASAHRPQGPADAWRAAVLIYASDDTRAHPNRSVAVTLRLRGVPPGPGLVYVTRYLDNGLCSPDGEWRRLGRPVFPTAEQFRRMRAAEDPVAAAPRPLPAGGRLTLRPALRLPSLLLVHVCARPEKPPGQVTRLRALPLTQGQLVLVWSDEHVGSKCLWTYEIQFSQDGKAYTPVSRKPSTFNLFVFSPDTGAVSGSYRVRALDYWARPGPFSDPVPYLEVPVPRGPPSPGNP
Briefly: IDUA assay in plasma of mice co-administered rhIDUA and GT-01803. It counts as in vivo, male C57BL/6 mice. The note with it: GT-01803 5, 10, 20 mg/kg i.v. + rhIDUA 1.2 mg/kg i.v.; 0.5, 1, 2 h; dose-dependent, significant at 20 mg/kg. Here is the method: Mice studies were performed by Sai Life Sciences (Pune, India). All procedures of the present study were in accordance with the guidelines provided by the Committee for the Purpose of Control and Supervision of Experiments on Animals (CPCSEA) as published in The Gazette of India, December 15, 1998. In addition, prior approval from the Institutional Animal Ethics Committee (IAEC) was obtained before the initiation of the study. Healthy male C57BL/6 mice (8–10 weeks old) weighing between 22 and 25 g were procured (Global, Pune, India). Three to five mice were housed in each cage. Temperature and humidity were maintained at 22 ± 2 °C and 41–63%, respectively, and illumination was controlled to give a sequence of a 12 h light and 12 h dark cycle. In the study’s in-life phase, we provided all mice with cage enrichment to minimize anxiety. We conducted bone marrow sampling under isoflurane anesthesia, maintaining it throughout the entire procedure. […] All procedures were carried out according to our in-house Standard Operating Procedures and monitored by a veterinarian if required. […]
Plasma samples from mice were collected at 0.5, 1 and 2 h after treatment with compound #18 (GT-01803). […] The plate was read at excitation 355 nm and emission 460 nm in TECAN Infinite® M1000 Pro reader (Thermo Fisher Scientific, UK). […]

Test [2] addresses T2, IDUA (Homo sapiens, UniProt P35475).
T2 sequence (P35475 28-653): T1 sequence (P35475 28-653)
Kind of test: Differential scanning fluorimetry (DSF) thermal shift. It counts as binding. Further details: purchased R&D Systems. The protocol: The capacity of the compounds to stabilise IDUA was assessed by DSF. The thermal denaturation of purified human native enzyme was monitored in the presence of the extrinsic fluorescent probe SYPRO® Orange (Thermo Fisher Scientific, Waltham, MA, USA), which binds to hydrophobic parts of proteins that become exposed as the protein unfolds. […] Reactions containing 12.5 μL of 1.5 μM rhIDUA protein (purchased from R&D Systems) in 100 mM Hepes, 20 mM MgCl2, pH 7, to a final protein concentration of 0.75 μM with SYPRO Orange 10X, and 12.5 μL of the different compound solutions dissolved in 100% DMSO and diluted into the protein buffer to achieve final concentrations of 1% DMSO. The intensity of SYPRO Orange fluorescence after a systematic increase in temperature was monitored in the Roche LightCycler® 480 II device (Roche Diagnostics). The significance of the melting temperature (Tm) shifts was evaluated based on two criteria: absolute ΔTm shift > 0.5 °C (instrumental criterion) and absolute ΔTm standard deviation ≤ 0.2 (statistical criterion). The thermal shift dose response was performed at various increasing concentrations (from 0.04 to 90 μM) of compound #18 (GT-01803) with rhIDUA (obtained from the Institute of Biotechnology and Biomedicine at the Autonomous University of Barcelona (UAB), Bellaterra, Spain).
On the technique in general: Differential scanning fluorimetry follows unfolding on heating by fluorescence.

Consider `CCN(CC(=O)Nc1c(Cl)cccc1Cl)Cc1nc2ccsc2c(=O)[nH]1` [GT-01803], for which, in test [1], the “IDUA enzymatic activity levels in plasma” value was “increased”. Besides, in test [2] (30 μM, compounds #1 to #21), the “rhIDUA stabilization by DSF (ΔTm)” value is reported as “highest rhIDUA stabilization”. Besides, in test [2] (dose response 0.04 to 90 μM, neutral pH), the “increase of rhIDUA melting temperature” value is reported as 4 ºC.
